Results on one compound are retold here after patent US20080004348A1, “Naphthalene compounds” (LES LABORATOIRES SERVIER, priority 2006, published 2008).

In one test the target is MT1 receptor (Homo sapiens, UniProt P48039). Kind of test: Melatonin MT1 receptor binding study, 2-[125I]-iodomelatonin. The following applies: 2-[125I]-iodomelatonin radioligand. The protocol: (§1) The MT1 or MT2 receptor binding experiments are carried out using 2-[^125I]-iodomelatonin as reference radioligand. The radioactivity retained is determined using a liquid scintillation counter.
Sequence of MT1 receptor (P48039 whole entry): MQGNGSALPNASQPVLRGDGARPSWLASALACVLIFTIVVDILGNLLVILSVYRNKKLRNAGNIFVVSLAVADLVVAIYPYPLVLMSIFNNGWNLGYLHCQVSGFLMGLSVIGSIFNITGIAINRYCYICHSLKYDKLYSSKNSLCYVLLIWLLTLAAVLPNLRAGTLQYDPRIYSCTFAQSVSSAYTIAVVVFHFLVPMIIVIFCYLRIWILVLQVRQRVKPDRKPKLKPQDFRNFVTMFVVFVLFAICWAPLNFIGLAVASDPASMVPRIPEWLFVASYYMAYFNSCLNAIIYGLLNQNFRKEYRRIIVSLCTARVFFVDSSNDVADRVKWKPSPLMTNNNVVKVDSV
(§2) Competitive binding experiments are then carried out in triplicate using the various test compounds. A range of different concentrations is tested for each compound. The results enable the binding affinities of the compounds tested (Ki) to be determined.

A further test has as its target T1, MT2 receptor (Homo sapiens, UniProt P49286).
T1 sequence (P49286 1-362): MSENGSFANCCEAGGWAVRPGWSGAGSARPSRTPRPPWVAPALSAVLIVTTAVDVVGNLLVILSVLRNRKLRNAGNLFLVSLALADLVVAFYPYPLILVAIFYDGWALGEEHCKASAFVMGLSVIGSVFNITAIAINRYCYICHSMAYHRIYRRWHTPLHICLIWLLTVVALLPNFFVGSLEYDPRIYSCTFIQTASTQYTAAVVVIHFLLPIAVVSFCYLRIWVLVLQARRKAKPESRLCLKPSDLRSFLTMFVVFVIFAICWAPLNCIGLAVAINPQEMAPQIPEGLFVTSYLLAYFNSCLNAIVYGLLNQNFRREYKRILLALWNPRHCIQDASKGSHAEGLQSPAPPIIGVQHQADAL
Kind of test: Melatonin MT2 receptor binding study, 2-[125I]-iodomelatonin. The following applies: 2-[125I]-iodomelatonin radioligand. Here is the method: as §1, §2

Another test addresses T2, human 5-HT2C receptor (Homo sapiens, UniProt P28335).
T2 construct: expressed in transfected cells
T2 sequence (P28335 33-458): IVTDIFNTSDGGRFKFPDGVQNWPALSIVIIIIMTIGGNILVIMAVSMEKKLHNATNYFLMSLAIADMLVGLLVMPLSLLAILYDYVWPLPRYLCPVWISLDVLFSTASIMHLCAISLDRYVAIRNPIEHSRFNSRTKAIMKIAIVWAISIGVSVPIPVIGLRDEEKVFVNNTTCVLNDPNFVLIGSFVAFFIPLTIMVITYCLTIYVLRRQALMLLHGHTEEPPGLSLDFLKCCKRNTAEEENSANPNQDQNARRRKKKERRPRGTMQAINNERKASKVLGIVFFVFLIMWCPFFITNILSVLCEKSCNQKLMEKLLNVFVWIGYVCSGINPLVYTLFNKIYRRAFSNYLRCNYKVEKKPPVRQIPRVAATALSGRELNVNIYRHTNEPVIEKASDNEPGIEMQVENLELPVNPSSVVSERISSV
Kind of test: Serotoninergic 5-HT2C receptor binding study, [3H]-mesulergine. The conditions noted are these: membranes from CHO cells expressing human 5-HT2C. Here is the method:
The affinity of the compounds for the human 5-HT2C receptor is evaluated on membrane preparations from CHO cells stably expressing that receptor.
Incubation is carried out in 50mM TRIS buffer, pH 7.4 containing 10 mM MgCl2 and 0.1% BSA, in the presence of [^3H]-mesulergine (InM) and 25 fmol/ml of receptor. Non-specific binding is determined in the presence of 10 μM mianserin.
The reaction is stopped by the addition of 50 mM TRIS buffer, pH 7.4 followed by a filtration step and 3 successive rinses: the radioactivity bound to the membranes remaining on the filters (GF/B pretreated with 0.1% PEI) is determined by liquid scintillation counting.

Usually Ki stands for a measure of affinity in units of concentration, obtained from inhibition or displacement. A low value points to higher affinity. `COCC(CNC(C)=O)c1cccc2ccc(OC)cc12` (stereo not drawn) [Example 6, N-[3-Methoxy-2-(7-methoxy-1-naphthyl)propyl]acetamide]: the figures for the Ki at MT1 receptor, on MT2 receptor and on human 5-HT2C receptor were 4.9 nM, 8.9 nM and 26000 nM, respectively.
